Assay results from US9428499B2, “Heterocyclyl compounds as MEK inhibitors” (LUPIN LIMITED, priority 2012, dated 2016).

How the values were obtained:
[1] = test system: MEK phosphorylation (S218 and S222); test: Analysis of B-Raf-mediated MEK phosphorylation (Alphascreen SureFire Phospho-MEK); format: cell-based, human; details: read-out: % Inhibition of MEK phosphorylation, human melanoma cells, 1 h, read-out: % Inhibition of MBK phosphorylation; for inhibition at 0.001 µM: 1 nM; for inhibition at 0.01 µM: 10 nM; for inhibition at 0.1 µM: 100 nM
Protocol: This assay was carried out with human melanoma cells. Cells were treated for 1 h with various concentrations of test compounds. MEK phosphorylation (S218 and S222) analysis was performed using the Alphascreen SureFire Phospho-MEK Kit (Perkin Elmer), by following the manufacturer's instructions. % inhibition of […] phosphorylation was determined as: 100−{(RFU test−RFU lysis buffer control)/(RFU vehicle treated control−RFU lysis buffer control)}×100.

ERK phosphorylation = test: Analysis of ERK phosphorylation (Alphascreen SureFire Phospho-ERK 1/2); format: cell-based, human and mouse; details: cells treated for 1 h; human melanoma cells, human and mouse colon cancer cells; read-out: Minimum concentration (nM) required for ≧80% inhibition of pERK
Protocol: This assay was carried out with human melanoma cells, human and mouse colon cancer cells. Cells were treated for 1 h with various concentrations of test compounds. ERK phosphorylation analysis was performed using the Alphascreen SureFire Phospho-ERK 1/2 Kit (Perkin Elmer), by following the manufacturer's instructions. % inhibition of ERK phosphorylation was determined as: 100−{(RFU test−RFU lysis buffer control)/(RFU vehicle treated control−RFU lysis buffer control)}×100. Percentage inhibition at concentrations of 0.01 nM, 0.03 nM, 0.1-0.9 nM, 1 nM to 3 nM, 4-100 nM, and >100 nM, for the stated examples is setworth here. The percentage inhibition at the above depicted concentrations for the compounds stated are given in the following groups.

SMILES	inhibition at 0.001 µM [1]	inhibition at 0.01 µM [1]	inhibition at 0.1 µM [1]	IC80 (ERK phosphorylation)
CNC(=O)COc1cccc(-n2c(=O)[nH]c(=O)c3c(Nc4ccc(I)cc4F)n(C)c(=O)c(C)c32)c1 [Compound 5, 2-(3-(5-((2-fluoro-4-iodophenyl)amino)-6,8-dimethyl-2,4,7-trioxo-3,4,6,7-tetrahydropyrido[4,3-d]pyrimidin-1(2H)-yl)phenoxy)-N-methylacetamide]	93.9%	97.4%	97.4%	0.1 to 0.9 nM
Cc1c(=O)n(C)c(Nc2ccc(I)cc2F)c2c(=O)[nH]c(=O)n(-c3cccc(OCC(N)=O)c3)c12 [Compound 16, 2-(3-(5-((2-fluoro-4-iodophenyl)amino)-6,8-dimethyl-2,4,7-trioxo-3,4,6,7-tetrahydropyrido[4,3-d]pyrimidin-1(2H)-yl)phenoxy)acetamide]	89.2%	93.3%	94.7%	1 to 3 nM
Cc1c(=O)n(C)c(Nc2ccc(I)cc2F)c2c(=O)[nH]c(=O)n(-c3cccc(C(=O)NC4CC4)c3)c12 [Compound 2, N-cyclopropyl-3-(5-((2-fluoro-4-iodophenyl)amino)-6,8-dimethyl-2,4,7-trioxo-3,4,6,7-tetrahydropyrido[4,3-d]pyrimidin-1(2H)-yl)benzamide]	72.2%	93.4%	96.4%	0.01 nM
Cc1c(=O)n(C)c(Nc2ccc(I)cc2F)c2c(=O)n(C3CC3)c(=O)n(-c3cccc(C4(C(N)=O)CC4)c3)c12 [Compound 78, 1-(3-(3-cyclopropyl-5-((2-fluoro-4-iodophenyl)amino)-6,8-dimethyl-2,4,7-trioxo-3,4,6,7-tetrahydropyrido[4,3-d]pyrimidin-1(2H)-yl)phenyl)cyclopropanecarboxamide]	42.6%	56.7%	75.4%	0.1 to 0.9 nM
Cc1c(=O)n(C)c(Nc2ccc(I)cc2F)c2c(=O)n(C)c(=O)n(-c3cccc(C(=O)N4CCOCC4)c3)c12 [Compound 63, 5-((2-fluoro-4-iodophenyl)amino)-3,6,8-trimethyl-1-(3-(morpholine-4-carbonyl)phenyl)pyrido[4,3-d]pyrimidine-2,4,7(1H,3H,6H)-trione]	–	–	–	1 to 3 nM
CNC(=O)COc1cccc(-n2c(=O)n(C)c(=O)c3c(Nc4ccc(I)cc4F)n(C)c(=O)c(C)c32)c1 [Compound 60, 2-(3-(5-((2-fluoro-4-iodophenyl)amino)-3,6,8-trimethyl-2,4,7-trioxo-3,4,6,7-tetrahydropyrido[4,3-d]pyrimidin-1(2H)-yl)phenoxy)-N-methylacetamide]	–	–	–	0.1 to 0.9 nM
Cc1c(=O)n(C)c(Nc2ccc(I)cc2F)c2c(=O)[nH]c(=O)n(-c3cccc(C(=O)N4CCC(O)C4)c3)c12 (stereo not shown) [Compound 22, 5-((2-fluoro-4-iodophenyl)amino)-1-(3-(3-hydroxypyrrolidine-1-carbonyl)phenyl)-6,8-dimethylpyrido[4,3-d]pyrimidine-2,4,7(1H,3H,6H)-trione]	–	–	–	4 to 100 nM
Cc1c(=O)n(C)c(Nc2ccc(I)cc2F)c2c(=O)n(C)c(=O)n(-c3cccc(C(=O)NC4(CO)CC4)c3)c12 [Compound 53, 3-(5-((2-fluoro-4-iodophenyl)amino)-3,6,8-trimethyl-2,4,7-trioxo-3,4,6,7-tetrahydropyrido[4,3-d]pyrimidin-1(2H)-yl)-N-(1-(hydroxymethyl)cyclopropyl)benzamide]	–	–	–	4 to 100 nM
Cc1c(=O)n(C)c(Nc2ccc(I)cc2F)c2c(=O)n(C)c(=O)n(-c3cccc(OCC(=O)NC4CC4)c3)c12 [Compound 41, N-cyclopropyl-2-(3-(5-((2-fluoro-4-iodophenyl)amino)-3,6,8-trimethyl-2,4,7-trioxo-3,4,6,7-tetrahydropyrido[4,3-d]pyrimidin-1(2H)-yl)phenoxy)acetamide]	–	–	–	0.1 to 0.9 nM
Cc1c(=O)n(C)c(Nc2ccc(I)cc2F)c2c(=O)n(C)c(=O)n(-c3cccc(C(O)C(N)=O)c3)c12 (stereo not shown) [Compound 47, 2-(3-(5-((2-fluoro-4-iodophenyl)amino)-3,6,8-trimethyl-2,4,7-trioxo-3,4,6,7-tetrahydropyrido[4,3-d]pyrimidin-1(2H)-yl)phenyl)-2-hydroxyacetamide]	–	–	–	0.1 to 0.9 nM
Cc1c(=O)n(C)c(Nc2ccc(I)cc2F)c2c(=O)n(C3CC3)c(=O)n(-c3cccc(C(C)(C)C(N)=O)c3)c12 [Compound 28, 2-(3-(3-cyclopropyl-5-((2-fluoro-4-iodophenyl)amino)-6,8-dimethyl-2,4,7-trioxo-3,4,6,7-tetrahydropyrido[4,3-d]pyrimidin-1(2H)-yl)phenyl)-2-methylpropanamide]	–	–	–	0.1 to 0.9 nM
Cc1c(=O)n(C)c(Nc2ccc(I)cc2F)c2c(=O)n(C)c(=O)n(-c3cccc([C@@H](O)C(N)=O)c3)c12 [Compound 75, (R)-2-(3-(5-((2-fluoro-4-iodophenyl)amino)-3,6,8-trimethyl-2,4,7-trioxo-3,4,6,7-tetrahydropyrido[4,3-d]pyrimidin-1(2H)-yl)phenyl)-2-hydroxyacetamide]	–	–	–	1 to 3 nM
Cc1c(=O)n(C)c(Nc2ccc(I)cc2F)c2c(=O)n(C3CC3)c(=O)n(-c3cccc(OCC(=O)NC4CC4)c3)c12 [Compound 25, N-cyclopropyl-2-(3-(3-cyclopropyl-5-((2-fluoro-4-iodophenyl)amino)-6,8-dimethyl-2,4,7-trioxo-3,4,6,7-tetrahydropyrido[4,3-d]pyrimidin-1(2H)-yl)phenoxy)acetamide]	–	–	–	0.1 to 0.9 nM
CCn1c(=O)c2c(Nc3ccc(I)cc3F)n(C)c(=O)c(C)c2n(-c2cccc(CC(=O)N(C)C)c2)c1=O [Compound 67, 2-(3-(3-ethyl-5-((2-fluoro-4-iodophenyl)amino)-6,8-dimethyl-2,4,7-trioxo-3,4,6,7-tetrahydropyrido[4,3-d]pyrimidin-1(2H)-yl)phenyl)-N,N-dimethylacetamide]	–	–	–	0.1 to 0.9 nM
Cc1c(=O)n(C)c(Nc2ccc(I)cc2F)c2c(=O)n(C3CC3)c(=O)n(-c3cccc(C(=O)N4CCS(=O)(=O)CC4)c3)c12 [Compound 39, 3-cyclopropyl-1-(3-(1,1-dioxidothiomorpholine-4-carbonyl)phenyl)-5-((2-fluoro-4-iodophenyl)amino)-6,8-dimethylpyrido[4,3-d]pyrimidine-2,4,7(1H,3H,6H)-trione]	–	–	–	1 to 3 nM
Cc1c(=O)n(C)c(Nc2ccc(I)cc2F)c2c(=O)n(C)c(=O)n(-c3cccc(C(C)(C)C(N)=O)c3)c12 [Compound 43, 2-(3-(5-((2-fluoro-4-iodophenyl)amino)-3,6,8-trimethyl-2,4,7-trioxo-3,4,6,7-tetra hydropyrido[4,3-d]pyrimidin-1(2H)-yl)phenyl)-2-methylpropanamide]	–	–	–	0.1 to 0.9 nM
Cc1c(=O)n(C)c(Nc2ccc(I)cc2F)c2c(=O)n(C)c(=O)n(-c3cccc(CC(=O)N4CC(O)C4)c3)c12 [Compound 48, 5-((2-fluoro-4-iodophenyl)amino)-1-(3-(2-(3-hydroxyazetidin-1-yl)-2-oxoethyl)phenyl)-3,6,8-trimethylpyrido[4,3-d]pyrimidine-2,4,7(1H,3H,6H)-trione]	–	–	–	1 to 3 nM
Cc1c(=O)n(C)c(Nc2ccc(I)cc2F)c2c(=O)n(C)c(=O)n(-c3cccc(CC(=O)NC4COC4)c3)c12 [Compound 50, 2-(3-(5-((2-fluoro-4-iodophenyl)amino)-3,6,8-trimethyl-2,4,7-trioxo-3,4,6,7-tetrahydropyrido[4,3-d]pyrimidin-1(2H)-yl)phenyl)-N-(oxetan-3-yl)acetamide]	–	–	–	4 to 100 nM
Cc1c(=O)n(C)c(Nc2ccc(I)cc2F)c2c(=O)n(C)c(=O)n(-c3cccc(C(F)(F)C(N)=O)c3)c12 [Compound 45, 2,2-difluoro-2-(3-(5-((2-fluoro-4-iodophenyl)amino)-3,6,8-trimethyl-2,4,7-trioxo-3,4,6,7-tetrahydropyrido[4,3-d]pyrimidin-1(2H)-yl)phenyl)acetamide]	–	–	–	1 to 3 nM
CCn1c(=O)c2c(Nc3ccc(I)cc3F)n(C)c(=O)c(C)c2n(-c2cccc(C(=O)NC3CC3)c2)c1=O [Compound 62, N-cyclopropyl-3-(3-ethyl-5-((2-fluoro-4-iodophenyl)amino)-6,8-dimethyl-2,4,7-trioxo-3,4,6,7-tetrahydropyrido[4,3-d]pyrimidin-1(2H)-yl)benzamide]	–	–	–	4 to 100 nM
Cc1c(=O)n(C)c(Nc2ccc(I)cc2F)c2c(=O)n(C3CC3)c(=O)n(-c3cccc(OCC(N)=O)c3)c12 [Compound 35, 2-(3-(3-cyclopropyl-5-((2-fluoro-4-iodophenyl)amino)-6,8-dimethyl-2,4,7-trioxo-3,4,6,7-tetrahydropyrido[4,3-d]pyrimidin-1(2H)-yl)phenoxy)acetamide]	–	–	–	0.03 nM
Cc1c(=O)n(C)c(Nc2ccc(I)cc2F)c2c(=O)n(C)c(=O)n(-c3cccc(C4(C(N)=O)CC4)c3)c12 [Compound 79, 1-(3-(5-((2-fluoro-4-iodophenyl)amino)-3,6,8-trimethyl-2,4,7-trioxo-3,4,6,7-tetrahydropyrido[4,3-d]pyrimidin-1(2H)-yl)phenyl)cyclopropanecarboxamide]	–	–	–	4 to 100 nM
